Data set [1] concerns collagen antibody-induced arthritis (CAIA). The data set can be described thus: CAIA arthritis severity clinical score. Type of data set: in vivo, Balb/C mice. To be noted: P2–1 i.p. daily Day 6 to Day 9; male and female mice; vs. saline vehicle. The procedure: (§1) The CAIA model was performed in Balb/C mice (8–10 weeks old) as described previously. On Day 0, mice received i.p. injection of 2 mg anti-collagen II mAb cocktail (α-II, Chondrex, Inc., Redmond, WA). On Day 3, mice received i.p. injection of 30 μg LPS (Escherichia coli O111:B4; Sigma-Aldrich) to activate inflammation and synchronize arthritis onset. Mice were randomized, and therapeutic agents (P2–1 peptide or pCTS-L-neutralizing mAb2) were administered i.p. daily from Day 6 to Day 9. Arthritis severity was scored daily using a clinical scoring system [0 – 4 per paw: 0 = normal; 1 = mild redness and swelling in a single joint type (ankle, wrist, or individual digits); 2 = moderate redness and swelling affecting two joint types; 3 = severe redness and swelling involving across all three joint types; 4 = maximal redness and swelling of the entire paw that obscured joint definition].

Data set [2] has as its system CAIA-induced mechanical allodynia. The data set can be described thus: CAIA pain sensitivity, Von Frey filaments. Type of data set: in vivo, Balb/C mice. To be noted: P2–1 i.p. daily Day 6 to Day 9; 50% paw withdrawal threshold, up-down method. The protocol:
as §1
Mechanical allodynia was assessed using Von Frey filaments (Stoelting Co., Wood Dale, IL) applied to the plantar surface of the hind paws as previously described,[82]. Mice were habituated in individual transparent enclosures on an elevated wire mesh platform. […] The “up-down” method determined the 50% paw withdrawal threshold, defined as the force required to elicit a withdrawal response in 50% of applications.

Data set [3] deals with T1, Recombinant human HMGB1 (Homo sapiens, UniProt P09429).
T1 construct: made in house; host or cells: E. coli BL21 (DE3) pLysS
T1 sequence (P09429 1-215): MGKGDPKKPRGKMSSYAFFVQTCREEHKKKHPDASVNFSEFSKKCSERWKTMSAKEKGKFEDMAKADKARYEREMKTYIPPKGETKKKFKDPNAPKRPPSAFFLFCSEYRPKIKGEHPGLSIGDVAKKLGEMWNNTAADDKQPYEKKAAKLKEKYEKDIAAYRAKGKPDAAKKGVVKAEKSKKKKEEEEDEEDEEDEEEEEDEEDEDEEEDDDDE
The data set can be described thus: SPR (OpenSPR) binding to immobilized HMGB1. To be noted: immobilized HMGB1, HBS-P buffer; Fig. 5A; Mean ± SEM, n = 2 independent experiments. The procedure:
Binding kinetics between HMGB1 and P2–1 were measured using Nicoya Life Science gold nanoparticle-based OpenSPR technology (Kitchener, ON, Canada) as previously described,[84]. Recombinant human HMGB1 was immobilized onto a Carboxyl sensor chip, and P2–1 peptide was flowed over immobilized HMGB1 at various concentrations in HBS-P buffer (GE Healthcare). Response units were recorded over time, and binding affinity was estimated as the equilibrium dissociation constant KD using Trace Drawer Kinetic Data Analysis v.1.6.1 (Nicoya Life Science).

The subject of data set [4] is human PBMCs. The data set can be described thus: RNA-seq of HMGB1-stimulated PBMCs. Type of data set: cell-based. The settings on record: for other HMGB1-induced gene expression (cytokines, chemokines) (words): P2–1 5.0 or 10.0 μg/ml with HMGB1. The protocol:
Human blood was purchased from the New York Blood Center (Long Island City, NY, USA), and PBMCs were isolated by density gradient centrifugation through Ficoll (Ficoll-Paque PLUS) as previously described,[30]. PBMCs were cultured in RPMI-1640 supplemented with 10% human serum, 2 mM L-glutamine, 100 U/mL penicillin, and 100 μg/mL streptomycin (all from Invitrogen). For experiments, PBMCs were stimulated with recombinant human HMGB1 (0.5 or 2.0 μg/ml) for 16 hours, either alone or in combination with P2–1 at 5.0 or 10.0 μg/ml. Cell-free supernatants were collected for analysis of cytokines/chemokines levels by Cytokine Antibody Arrays, or pCTS-L levels by Western blotting analysis as described.
Total RNA was isolated from human PBMCs stimulated with HMGB1 in the absence or presence of P2–1 (5.0 or 10.0 μg/ml) using the RNeasy Mini Kit (Qiagen) according to the manufacturer’s instructions. RNA quantity and quality were assessed using a NanoDrop spectrophotometer and an Agilent Bioanalyzer. cDNA libraries were prepared using the TruSeq RNA Library Prep Kit v2 (Illumina) and sequenced on an Illumina NovaSeq 6000 platform to generate 100 bp paired-end reads. Raw sequencing reads were quality-checked using FastQC, trimmed with Trimmomatic, and aligned to the human reference genome (GRCh38) using HISAT2. Gene counts were quantified using StringTie and DESeq2 was used for differential gene expression analysis. Volcano plots and heatmaps were generated using ggplot2 and pheatmap packages in R, respectively. Genes with an adjusted P-value < 0.05 and a |log2-fold change| > 1 were considered differentially expressed.

The nature of data set [5]: water solubility. Type of data set: physicochemical.

Entries after “also recorded” stand apart in the source; their conditions may differ.

Broadly, the Kd is a measure of binding affinity in units of concentration.

“54-TKVH(Nle)KSFLAFQTKT-69 [P2–1, water-soluble derivative of TN peptide P2 with Met to Norleucine and Cys to Ser substitutions]”: in data set [1], the arthritis severity result was “dose-dependently and significantly attenuated”. For the same substance, in data set [2], the “pain sensitivity (paw mechanical withdrawal threshold)” value is recorded as “significantly reduced CAIA-induced pain sensitivity by partially restoring paw mechanical withdrawal thresholds”. For the same substance, the Kd in data set [3] stood at 24.1 ± 9.35 nM. For the same substance, in data set [4] (HMGB1 + P2–1 group, three independent donors, mean ± SEM), the “Ctsl mRNA upregulation (fold)” value is reported as 2.4 ± 0.1 fold. Also, the “HMGB1-induced Ctsl mRNA upregulation” value in data set [4] (P2–1 5.0 or 10.0 μg/ml) is listed as “moderately but significantly reduced HMGB1-induced Ctsl mRNA upregulation”. The “other HMGB1-induced gene expression (cytokines, chemokines) (words)” value in data set [4] was “did not broadly reverse HMGB1-induced transcriptional changes for most genes; also recorded: not significantly affecting the expression of other HMGB1-induced cytokines and chemokines”; in data set [4] (listed as P2-1), “does not induce”. Also, the water solubility entry in data set [5] was “good water solubility”.

Values taken from publication PMC12458545, “Repurposing a Detrimental Antibody Epitope as Targeted Therapeutics for Sepsis and Rheumatoid Arthritis” (Research Square, 2025).
